Data from the NIST ThermoML archive (doi:10.1021/je060271a).

Details: 303.16 K, Liquid, Vibrating tube method

CCCC(=O)OCC(COC(=O)CCC)(COC(=O)CCC)COC(=O)CCC [pentaerythritol tetrabutyrate]
Details	mass density [kg/m3]
6790.5 kPa	1046.6
6817.3 kPa	1046.7
6849.6 kPa	1046.6
6876.7 kPa	1046.6
6909 kPa	1046.7
6936.8 kPa	1046.6
6965.3 kPa	1046.7
6993.5 kPa	1046.7
7274.1 kPa	1047
7311.4 kPa	1046.9
7343 kPa	1046.9
7374.1 kPa	1046.9
7412.9 kPa	1047
7446.2 kPa	1047
7479.9 kPa	1047.1
7515.1 kPa	1047
7541.7 kPa	1047.1
7566.7 kPa	1047.1
7596.6 kPa	1047.2
7622.5 kPa	1047.1
7647.8 kPa	1047.1
7673.7 kPa	1047.1
7703.6 kPa	1047.1
7729.5 kPa	1047.2
7755.5 kPa	1047.2
7786.9 kPa	1047.3
7813.7 kPa	1047.3
7840.6 kPa	1047.2
7867.9 kPa	1047.3
7895 kPa	1047.2
7927.7 kPa	1047.2
7955 kPa	1047.3
7982.8 kPa	1047.3
8016.1 kPa	1047.4
8044.7 kPa	1047.3
8073.5 kPa	1047.3
8102.7 kPa	1047.4
8125 kPa	1047.5
8147.9 kPa	1047.5
8175.2 kPa	1047.5
8198.5 kPa	1047.5
8222.3 kPa	1047.4
8245.7 kPa	1047.6
8273.3 kPa	1047.4
8297.3 kPa	1047.5
8325.9 kPa	1047.5
8350.8 kPa	1047.6
8373.4 kPa	1047.6
8504.8 kPa	1047.7
8527.9 kPa	1047.7
8547 kPa	1047.6
8565.8 kPa	1047.7
8588.8 kPa	1047.8
8607.6 kPa	1047.8
8630.3 kPa	1047.7
8649.3 kPa	1047.8
8672.8 kPa	1047.8
8693.1 kPa	1047.8
8716 kPa	1047.9
8735.5 kPa	1047.8
8759.5 kPa	1047.9
8783.6 kPa	1047.9
8803.1 kPa	1047.9
8823.4 kPa	1047.9
8847.6 kPa	1047.9
8867.8 kPa	1048
8892.1 kPa	1047.9
8916.2 kPa	1047.9
8936.4 kPa	1047.9
8960.7 kPa	1048
8981.7 kPa	1047.9
9006.9 kPa	1047.9
9027.7 kPa	1048
9053.1 kPa	1047.9
9078.7 kPa	1048.1
9099.8 kPa	1048
9121 kPa	1048.1
9146.6 kPa	1048
9172.2 kPa	1048.1
9193.2 kPa	1048.1
9244.7 kPa	1048.2
9266.6 kPa	1048.2
9293.3 kPa	1048.3
9315.9 kPa	1048.3
9343.1 kPa	1048.2
9366.4 kPa	1048.3
9391.5 kPa	1048.3
9419 kPa	1048.4
9442.1 kPa	1048.2
9469.3 kPa	1048.3
9492.3 kPa	1048.3
9519.7 kPa	1048.4
9547.7 kPa	1048.4
9571.3 kPa	1048.5
9599.9 kPa	1048.3
9623.9 kPa	1048.5
9652 kPa	1048.3
9680.6 kPa	1048.5
9705 kPa	1048.4
9730.4 kPa	1048.5
9759.3 kPa	1048.5
9783.6 kPa	1048.5
9812.9 kPa	1048.6
9843 kPa	1048.5
9868 kPa	1048.4
9898.3 kPa	1048.5
9923.1 kPa	1048.5
9953.2 kPa	1048.6
9984.1 kPa	1048.6
10010 kPa	1048.7
10041 kPa	1048.7
10067 kPa	1048.7
10100 kPa	1048.8
10126 kPa	1048.6
10159 kPa	1048.7
10186 kPa	1048.8
10218 kPa	1048.7
10245 kPa	1048.7
10278 kPa	1048.8
10305 kPa	1048.7
10337 kPa	1048.9
10371 kPa	1048.7
10399 kPa	1048.8
10432 kPa	1048.9
10461 kPa	1048.9
10496 kPa	1048.9
10525 kPa	1048.8
10560 kPa	1048.9
10589 kPa	1049
10624 kPa	1049
10658 kPa	1049.1
10687 kPa	1049
10723 kPa	1049.1
10753 kPa	1049
10789 kPa	1049.2
10820 kPa	1049.1
10857 kPa	1049.1
10894 kPa	1049.1
10924 kPa	1049.2
10961 kPa	1049.3
10993 kPa	1049.2
11031 kPa	1049.3
11063 kPa	1049.3
11101 kPa	1049.3
11133 kPa	1049.4
11171 kPa	1049.3
11210 kPa	1049.3
11243 kPa	1049.3
11283 kPa	1049.4
11317 kPa	1049.5
11359 kPa	1049.5
11394 kPa	1049.4
11436 kPa	1049.6
11472 kPa	1049.6
11511 kPa	1049.6
11541 kPa	1049.5
11577 kPa	1049.6
11607 kPa	1049.6
11641 kPa	1049.7
11666 kPa	1049.6
11688 kPa	1049.6
11714 kPa	1049.7
11736 kPa	1049.8
11763 kPa	1049.7
11789 kPa	1049.7
11811 kPa	1049.8
11838 kPa	1049.7
11865 kPa	1049.9
11888 kPa	1049.8
11910 kPa	1049.8
11936 kPa	1049.9
11964 kPa	1049.8
11987 kPa	1049.8
12015 kPa	1049.9
12038 kPa	1049.9
12068 kPa	1049.8
12093 kPa	1049.9
12117 kPa	1050
12145 kPa	1050
12173 kPa	1050
12197 kPa	1050
12221 kPa	1050
12250 kPa	1050.1
12278 kPa	1050
12302 kPa	1050.2
12331 kPa	1050.1
12356 kPa	1050.1
12385 kPa	1050.2
12416 kPa	1050.1
12441 kPa	1050.1
12466 kPa	1050.1
12496 kPa	1050.2
12521 kPa	1050.1
12551 kPa	1050.3
12576 kPa	1050.2
12607 kPa	1050.3
12637 kPa	1050.3
12663 kPa	1050.3
12694 kPa	1050.2
12720 kPa	1050.2
12751 kPa	1050.3
12782 kPa	1050.3
12808 kPa	1050.4
12840 kPa	1050.4
12867 kPa	1050.4
12899 kPa	1050.5
12926 kPa	1050.4
12959 kPa	1050.5
12986 kPa	1050.6
13019 kPa	1050.6
13051 kPa	1050.6
13078 kPa	1050.5
13111 kPa	1050.6
13173 kPa	1050.6
13201 kPa	1050.6
13235 kPa	1050.5
13264 kPa	1050.6
13297 kPa	1050.5
13332 kPa	1050.7
13360 kPa	1050.6
13395 kPa	1050.8
13424 kPa	1050.7
13459 kPa	1050.9
13493 kPa	1050.9
13522 kPa	1050.8
13558 kPa	1050.8
13589 kPa	1050.9
13625 kPa	1050.9
13656 kPa	1050.9
13693 kPa	1050.9
13723 kPa	1051
13761 kPa	1051
13791 kPa	1050.9
13829 kPa	1050.9
13859 kPa	1051.1
13897 kPa	1051
13934 kPa	1051
13966 kPa	1050.9
14003 kPa	1051.1
14035 kPa	1051.2
14072 kPa	1051.1
14111 kPa	1051.1
14144 kPa	1051.1
14184 kPa	1051.2
14217 kPa	1051.3
14257 kPa	1051.4
14291 kPa	1051.4
14332 kPa	1051.2
14367 kPa	1051.3
14409 kPa	1051.4
14443 kPa	1051.4
14483 kPa	1051.4
14513 kPa	1051.5
14547 kPa	1051.5
14581 kPa	1051.5
14609 kPa	1051.5
14643 kPa	1051.4
14672 kPa	1051.4
14706 kPa	1051.5
14740 kPa	1051.5
14770 kPa	1051.6
14804 kPa	1051.6
14839 kPa	1051.7
14868 kPa	1051.5
14907 kPa	1051.6
14937 kPa	1051.7
14972 kPa	1051.7
15002 kPa	1051.8
15038 kPa	1051.9
15069 kPa	1051.7
15106 kPa	1051.8
15136 kPa	1051.8
15174 kPa	1051.7
15210 kPa	1051.9
15242 kPa	1051.9
15279 kPa	1051.8
15312 kPa	1051.9
15345 kPa	1051.9
15384 kPa	1052.1
15415 kPa	1052
15453 kPa	1052
15492 kPa	1052
15525 kPa	1052.1
15564 kPa	1052.2
15597 kPa	1052.1
15637 kPa	1052.1
15671 kPa	1052.1
15710 kPa	1052.1
15743 kPa	1052.1
15783 kPa	1052.3
15823 kPa	1052.2
15857 kPa	1052.2
15897 kPa	1052.3
